Data reported in BigSolDB 2.1.

CC(=O)O[C@]1(C(C)=O)CC[C@H]2[C@@H]3C[C@H](C)C4=CC(=O)CC[C@]4(C)[C@H]3CC[C@@]21C
solubility (mole fraction)
Details | 278.15 K | 283.15 K | 288.15 K | 293.15 K | 298.15 K | 303.15 K | 308.15 K | 313.15 K | 318.15 K | 323.15 K
in acetone | 0.00469 | 0.00547 | 0.00618 | 0.00716 | 0.0083 | 0.00959 | 0.0112 | 0.0126 | 0.0144 | 0.0164
in acetonitrile | 0.00283 | 0.00339 | 0.00397 | 0.00473 | 0.0056 | 0.00664 | 0.00785 | 0.0092 | 0.0109 | 0.013
in ethanol | 0.000465 | 0.000655 | 0.000831 | 0.00106 | 0.00135 | 0.00168 | 0.00211 | 0.00267 | 0.0034 | 0.0043
in ethyl acetate | 0.00327 | 0.00385 | 0.00446 | 0.00515 | 0.00584 | 0.00671 | 0.00773 | 0.00887 | 0.0102 | 0.0118
in isobutanol | 0.000675 | 0.00085 | 0.00121 | 0.00157 | 0.00202 | 0.00269 | 0.00351 | 0.00463 | 0.00611 | 0.00789
in isobutyl acetate | 0.00292 | 0.00334 | 0.0039 | 0.00443 | 0.005 | 0.00574 | 0.00654 | 0.00736 | 0.00849 | 0.00979
in isopropanol | 0.000451 | 0.000651 | 0.000754 | 0.000945 | 0.00126 | 0.00166 | 0.00217 | 0.00281 | 0.00373 | 0.00477
in isopropyl acetate | 0.00234 | 0.00273 | 0.00317 | 0.00367 | 0.00428 | 0.00497 | 0.00567 | 0.00657 | 0.00751 | 0.00866
in methanol | 0.000588 | 0.000719 | 0.000887 | 0.0011 | 0.00135 | 0.00165 | 0.00202 | 0.0025 | 0.00309 | 0.00381
in methyl acetate | 0.00351 | 0.00415 | 0.00479 | 0.00557 | 0.00649 | 0.00748 | 0.00866 | 0.00999 | 0.0115 | 0.0131
in n-butanol | 0.000757 | 0.000978 | 0.00131 | 0.00168 | 0.0022 | 0.00277 | 0.00356 | 0.0046 | 0.0059 | 0.00753
in n-butyl acetate | 0.00296 | 0.0035 | 0.00406 | 0.00462 | 0.00538 | 0.00622 | 0.00716 | 0.00829 | 0.00958 | 0.0111
in n-propanol | 0.000683 | 0.00089 | 0.00114 | 0.00148 | 0.00188 | 0.00245 | 0.0031 | 0.00395 | 0.00508 | 0.00648
in n-propyl acetate | 0.0032 | 0.00384 | 0.00446 | 0.00517 | 0.0059 | 0.00682 | 0.00791 | 0.00917 | 0.0105 | 0.012
